This note sets out measurements from a melting point compilation (Tetko et al.; mined from patent text by program, amines drawn as free bases though some values may be those of a salt).

The melting point is the temperature, or range, at which the solid turns liquid. On to `CC(=O)NC[C@H]1CN(c2ccc(N3CCC(=C(C)C#N)CC3)cc2)C(=O)O1`, for which the melting point was in the range of 94 to 96 °C.

`CC(C)C(C)(C(N)=O)N1C(=O)c2ccccc2C1=O` (configuration not stated) yielded a melting point of 118 to 119 °C.

Regarding `CCCc1ccnc(C(N)=O)c1C(N)=O`, the melting point was in the range of 178 to 179 °C.

In turn, `CC(=O)OCC1OC(n2cc(SC#N)c(=O)[nH]c2=O)CC1(O)C(C)=O` (configuration not stated) returned a melting point of 106 to 108 °C.

Take `CS(=O)(=O)N1C[C@H](S)C[C@H]1COC(=O)Nc1ccccc1`: the melting point came to 148 °C.

`CCn1c(OC(C)C)n[nH]c1=O` registered a melting point of 69 to 70 °C.

Turning to `CC(C)c1nc2c(C(F)(F)F)cccc2c(O)c1C(=O)O`, the melting point worked out at 204 °C.

Compound `CN1C(=O)C(=O)NCC1(CCOC1CCCCO1)c1ccc(Cl)c(Cl)c1` (configuration not stated) yielded a melting point of 260 °C.

`COc1cc2c(C)c(-c3ccccc3)sc2c(Cl)c1Cl` yielded a melting point of 138 °C.

On to `CC1(C)CCCC(C)(C)N1Cc1ccc2cc(NC(=O)c3ccc(-c4ccc(Cl)cc4)nc3)ccc2n1`, for which the melting point was in the range of 258 to 259 °C.

Take `CCON1C(C)(C)CC(OC(=O)c2ccccc2)CC1(C)C`: the melting point lay in the range of 76 to 78 °C.

`C/C(=C\c1ccc(Cc2cccnc2)cc1)C(=O)O` gave a melting point of 164 to 166 °C.

Compound `O=C1C(Cl)=C(c2ccccc2)C(=O)N1c1ccc(Cl)cc1` returned a melting point of 116 to 117 °C.

`CS(=O)(=O)c1ccc(-c2cc(C(=O)c3cc(-c4ccc(S(C)(=O)=O)cc4)c(N4CCOCC4)s3)sc2N2CCOCC2)cc1` showed a melting point of 235 to 236 °C.

In turn, `Fc1ccccc1-c1nc2ncccc2o1` showed a melting point of 126 to 127 °C.

For the compound `Nc1nc(SCc2ccc3ccccc3c2)nc(O)c1CCO`, the melting point lay in the range of 192 to 193 °C.

`COc1ccc(CSc2nnc(-c3ccn4ncnc4c3)o2)cc1C#N` showed a melting point of 247 to 248 °C.

Regarding `Oc1ccc2c(c1O)OCC(c1cccc(F)c1)C2` (configuration not stated), the melting point fell in the range of 148 to 149 °C.

As for `CCCN1N=C2C(=Cc3ccccc3C)CSCC2C1c1ccccc1C` (configuration not stated), the melting point fell in the range of 110 to 112 °C.

For the compound `COc1cc(O)c(C(=O)C=Cc2ccccc2)c(OC)c1`, the melting point stood at 85.5 °C.

Compound `Cc1cccc(-c2nc3ccc(O)cc3n2Cc2ccccc2C(F)(F)F)c1` yielded a melting point of 233 °C.

`CCCc1ccnc2c(=O)[nH]c(-c3ccccc3OCC)nc12` registered a melting point of 134 to 137 °C.

`O=C(NC(=O)c1ccccc1Cl)Nc1ccc(C=C(Br)Br)cc1` returned a melting point of 190 °C.

For `COc1ccc(C(=O)Nc2cc(C(F)(F)F)c(Br)cc2S(N)(=O)=O)cc1`, the melting point came to 321 °C.

In the case of `CCOC(=O)CCCC(=NO)c1ccccc1`, the melting point lay in the range of 28 to 30 °C.

`Cc1cc(SCc2ccc(OCc3ccc(F)cc3F)cc2)ccc1OCC(=O)O`: the melting point fell in the range of 139 to 141 °C.

With `CCOc1ccccc1N1CCN(C(=O)Nc2nc3ccccc3nc2OCC)CC1`, the melting point lay within 120 to 122 °C.

The compound `Cc1ccc(COc2ncc(F)c(NCO)n2)cc1` returned a melting point of 97 to 98 °C.

Take `COC(=O)c1cc(C)cc(CC#N)c1`: the melting point fell in the range of 56.2 to 57.8 °C.

Consider `CCCCC1Oc2ccc(NC(C)=O)cc2C1O` (configuration not stated), for which the melting point fell in the range of 134 to 137 °C.

Consider `OC[C@@H](O)[C@@H]1OC[C@H](O)[C@H]1O` (racemic), for which the melting point is 69.5 to 71 °C.

On to `Cc1cc([N+](=O)[O-])c(Cl)c([N+](=O)[O-])c1C(=O)O`, for which the melting point fell in the range of 189 to 192 °C.

On to `O=c1[nH]c(N2CCNC(CO)C2)cc2ccccc12` (configuration not stated), for which the melting point is more than 120 °C.

Compound `Cc1cc2cccc(N=C3SC[C@@H]4Cc5ccccc5CN34)c2cn1` registered a melting point of 156 °C.

Turning to `CCCCc1c(/C=C/C(=O)O)ccc2c(OC)cccc12`, the melting point was 202 to 204 °C.

For the compound `NS(=O)(=O)c1cc2c(cc1Cl)C(=O)N(CCCN1CCOCC1)C2=O`, the melting point was in the range of 190 to 191 °C.

In turn, `O=c1c2c([nH]n1-c1ccc(Cl)cc1F)CCCCC2` registered a melting point of 197 to 201 °C.
